Series [1] has as its target T1, Solute carrier family 28 member 3 (Homo sapiens, UniProt Q9HAS3).
T1 sequence (Q9HAS3 whole entry): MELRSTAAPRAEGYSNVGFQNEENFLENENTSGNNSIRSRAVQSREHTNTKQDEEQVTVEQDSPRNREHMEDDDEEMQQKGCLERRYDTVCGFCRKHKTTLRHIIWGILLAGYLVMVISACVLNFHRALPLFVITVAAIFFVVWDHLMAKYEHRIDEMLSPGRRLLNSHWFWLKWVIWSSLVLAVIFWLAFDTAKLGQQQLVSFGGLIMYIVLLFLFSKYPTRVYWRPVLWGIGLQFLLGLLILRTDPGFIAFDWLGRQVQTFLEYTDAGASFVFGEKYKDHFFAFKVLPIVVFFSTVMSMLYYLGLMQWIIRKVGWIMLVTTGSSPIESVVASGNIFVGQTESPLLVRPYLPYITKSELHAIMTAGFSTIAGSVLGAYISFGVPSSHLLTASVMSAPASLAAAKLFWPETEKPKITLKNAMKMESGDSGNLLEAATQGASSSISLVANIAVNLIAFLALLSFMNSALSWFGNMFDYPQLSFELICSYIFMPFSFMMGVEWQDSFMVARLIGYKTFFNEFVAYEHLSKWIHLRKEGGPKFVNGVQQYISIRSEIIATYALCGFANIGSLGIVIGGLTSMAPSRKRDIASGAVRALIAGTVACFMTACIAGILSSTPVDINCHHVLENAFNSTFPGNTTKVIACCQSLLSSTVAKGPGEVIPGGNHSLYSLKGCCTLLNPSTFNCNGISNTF
Description: Binding affinity to recombinant human CNT3 expressed in Saccharomyces cerevisiae assessed as inhibition of [3H]-uridine transport after 5 mins by scintillation counting analysis. The series is classed as ADME. The conditions noted are these: for Ki: read-out: Ki(app).

Series [2] deals with T2, Equilibrative nucleoside transporter 2 (Homo sapiens, UniProt Q14542).
T2 sequence (Q14542 whole entry): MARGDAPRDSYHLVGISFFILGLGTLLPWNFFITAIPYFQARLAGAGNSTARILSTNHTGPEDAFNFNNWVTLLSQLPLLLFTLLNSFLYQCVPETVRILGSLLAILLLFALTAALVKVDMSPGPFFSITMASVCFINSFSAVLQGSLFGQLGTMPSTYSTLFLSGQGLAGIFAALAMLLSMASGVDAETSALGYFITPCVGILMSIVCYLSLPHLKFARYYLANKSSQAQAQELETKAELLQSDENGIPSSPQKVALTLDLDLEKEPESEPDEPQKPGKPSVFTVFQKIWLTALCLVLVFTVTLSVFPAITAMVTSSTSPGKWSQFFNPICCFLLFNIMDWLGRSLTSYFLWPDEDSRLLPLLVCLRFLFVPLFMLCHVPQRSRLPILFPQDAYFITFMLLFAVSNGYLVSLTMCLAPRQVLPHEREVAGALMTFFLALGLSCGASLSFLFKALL
Description: Binding affinity to recombinant human ENT2 expressed in Saccharomyces cerevisiae assessed as inhibition of [3H]-uridine transport after 15 mins by scintillation counting analysis. The conditions noted are these: for Ki: read-out: Ki(app). The series is classed as ADME.

In series [3] the target is T3, Sodium/nucleoside cotransporter 1 (Homo sapiens, UniProt O00337).
T3 sequence (O00337 whole entry): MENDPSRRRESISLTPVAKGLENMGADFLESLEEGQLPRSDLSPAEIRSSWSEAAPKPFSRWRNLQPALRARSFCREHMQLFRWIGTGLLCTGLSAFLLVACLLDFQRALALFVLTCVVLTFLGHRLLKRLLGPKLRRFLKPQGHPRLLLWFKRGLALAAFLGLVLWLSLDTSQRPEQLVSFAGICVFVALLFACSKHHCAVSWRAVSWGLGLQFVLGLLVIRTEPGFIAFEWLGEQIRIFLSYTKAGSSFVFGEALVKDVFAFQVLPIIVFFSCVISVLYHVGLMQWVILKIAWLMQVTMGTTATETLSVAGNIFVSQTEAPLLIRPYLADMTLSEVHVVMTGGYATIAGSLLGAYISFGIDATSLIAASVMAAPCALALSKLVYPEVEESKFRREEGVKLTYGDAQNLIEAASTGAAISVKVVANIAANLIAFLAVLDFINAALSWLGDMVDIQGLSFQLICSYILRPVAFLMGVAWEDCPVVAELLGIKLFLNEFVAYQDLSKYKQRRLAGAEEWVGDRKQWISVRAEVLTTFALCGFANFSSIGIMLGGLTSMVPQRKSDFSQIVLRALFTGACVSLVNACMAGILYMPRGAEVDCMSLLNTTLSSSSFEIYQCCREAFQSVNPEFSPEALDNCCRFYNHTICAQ
The series can be described thus: Binding affinity to recombinant human CNT1 expressed in Saccharomyces cerevisiae assessed as inhibition of [3H]-uridine transport after 15 mins by scintillation counting analysis. The series is classed as ADME. The conditions noted are these: for Ki: read-out: Ki(app).

Series [4] has as its target T4, Sodium/nucleoside cotransporter 2 (Homo sapiens, UniProt O43868).
T4 sequence (O43868 whole entry): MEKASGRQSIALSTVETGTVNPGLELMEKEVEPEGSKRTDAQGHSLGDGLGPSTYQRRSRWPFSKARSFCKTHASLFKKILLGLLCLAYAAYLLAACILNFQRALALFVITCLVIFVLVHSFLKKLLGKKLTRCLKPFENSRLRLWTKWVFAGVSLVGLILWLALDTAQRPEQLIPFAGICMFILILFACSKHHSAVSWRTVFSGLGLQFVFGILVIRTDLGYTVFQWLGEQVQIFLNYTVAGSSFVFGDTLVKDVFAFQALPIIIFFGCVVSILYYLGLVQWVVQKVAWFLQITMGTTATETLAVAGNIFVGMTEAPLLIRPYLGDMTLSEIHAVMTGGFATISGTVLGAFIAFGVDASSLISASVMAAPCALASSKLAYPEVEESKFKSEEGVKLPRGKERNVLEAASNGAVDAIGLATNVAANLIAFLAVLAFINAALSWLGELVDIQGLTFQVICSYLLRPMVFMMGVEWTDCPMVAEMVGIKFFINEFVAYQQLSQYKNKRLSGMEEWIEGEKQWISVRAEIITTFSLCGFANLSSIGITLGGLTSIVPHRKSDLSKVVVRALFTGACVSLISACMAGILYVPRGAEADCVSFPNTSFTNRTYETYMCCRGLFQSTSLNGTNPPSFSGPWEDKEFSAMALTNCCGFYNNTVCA
The series can be described thus: Binding affinity to recombinant human CNT2 expressed in Saccharomyces cerevisiae assessed as inhibition of [3H]-uridine transport after 15 mins by scintillation counting analysis. The class given is ADME. The conditions noted are these: for Ki: read-out: Ki(app).

Series [5] deals with T5, Equilibrative nucleoside transporter 1 (Homo sapiens, UniProt Q99808).
T5 sequence (Q99808 whole entry): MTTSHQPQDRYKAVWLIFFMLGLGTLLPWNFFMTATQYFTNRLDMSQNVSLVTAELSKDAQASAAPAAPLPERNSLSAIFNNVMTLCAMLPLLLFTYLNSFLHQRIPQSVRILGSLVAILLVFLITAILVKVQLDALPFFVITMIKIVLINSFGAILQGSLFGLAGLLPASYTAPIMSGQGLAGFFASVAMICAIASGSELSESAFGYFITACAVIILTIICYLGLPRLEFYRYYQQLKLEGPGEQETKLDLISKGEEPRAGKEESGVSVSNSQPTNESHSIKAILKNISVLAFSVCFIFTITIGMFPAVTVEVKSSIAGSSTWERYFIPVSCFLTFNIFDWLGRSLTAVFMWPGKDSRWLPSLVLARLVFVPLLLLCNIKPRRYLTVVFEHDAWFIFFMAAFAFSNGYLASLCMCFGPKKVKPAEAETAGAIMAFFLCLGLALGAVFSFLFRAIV
Description: Binding affinity to recombinant human ENT1 expressed in Saccharomyces cerevisiae assessed as inhibition of [3H]-uridine transport after 15 mins by scintillation counting analysis. The class given is ADME.

The nature of series [6]: Tmax in CD-1 mouse brain at 60 mg/kg, iv administered as bolus dose in absence of ENT1 inhibitor NBMPR-P. The series is classed as ADME, organism-based. Also on record: dose 60 mg/kg, route intravenous.
Series [7] concerns Brain. The series can be described thus: AUC (0 to 4 hrs) in CD-1 mouse brain at 60 mg/kg, iv administered as bolus dose in absence of ENT1 inhibitor NBMPR-P. The series is classed as ADME, organism-based. Also on record: time < 4 hr, dose 60 mg/kg, route intravenous. The conditions noted are these: in vivo.
Series [8] relates to Brain. Description: AUC (0 to 4 hrs) in CD-1 mouse brain at 60 mg/kg, iv administered as bolus dose in presence of ENT1 inhibitor NBMPR-P. The class given is ADME, organism-based. Also on record: time < 4 hr, dose 60 mg/kg, route intravenous. The conditions noted are these: in vivo.
Series [9] is described as follows: Tmax in CD-1 mouse brain at 60 mg/kg, iv administered as bolus dose in presence of ENT1 inhibitor NBMPR-P. Also on record: dose 60 mg/kg, route intravenous. The series is classed as ADME, organism-based.
Series [10] can be described thus: Cmax in CD-1 mouse brain at 60 mg/kg, iv administered as bolus dose in presence of ENT1 inhibitor NBMPR-P. The series is classed as ADME, organism-based. Also on record: dose 60 mg/kg, route intravenous.
Series [11] in a line: Apparent volume of distribution at steady state in CD-1 mouse at 60 mg/kg, iv administered as bolus dose in presence of ENT1 inhibitor NBMPR-P. The series is classed as ADME, organism-based. The arrangement: dose 60 mg/kg, route intravenous. The conditions noted are these: in vivo, read-out: Vdss(app).
Series [12] is described as follows: AUC (0 to infinity) in CD-1 mouse at 60 mg/kg, iv administered as bolus dose in absence of ENT1 inhibitor NBMPR-P. The series is classed as ADME, organism-based. Also on record: time infinity, dose 60 mg/kg, route intravenous. The conditions noted are these: plasma.
Series [13] is described as follows: Cmax in CD-1 mouse brain at 60 mg/kg, iv administered as bolus dose in absence of ENT1 inhibitor NBMPR-P. The arrangement: dose 60 mg/kg, route intravenous. The series is classed as ADME, organism-based.
Series [14] can be described thus: AUC (0 to infinity) in CD-1 mouse at 60 mg/kg, iv administered as bolus dose in presence of ENT1 inhibitor NBMPR-P. The series is classed as ADME, organism-based. Also on record: time infinity, dose 60 mg/kg, route intravenous. The conditions noted are these: plasma.
Series [15] is described as follows: Elimination half life in CD-1 mouse at 60 mg/kg, iv administered as bolus dose in presence of ENT1 inhibitor NBMPR-P. The series is classed as ADME, organism-based. Also on record: dose 60 mg/kg, route intravenous. The conditions noted are these: in vivo, read-out: beta t1/2 (converted).
Series [16] in a line: Elimination half life in CD-1 mouse at 60 mg/kg, iv administered as bolus dose in absence of ENT1 inhibitor NBMPR-P. The series is classed as ADME, organism-based. Also on record: dose 60 mg/kg, route intravenous. The conditions noted are these: in vivo, read-out: beta t1/2 (converted).
The nature of series [17]: Apparent volume of distribution at steady state in CD-1 mouse at 60 mg/kg, iv administered as bolus dose in absence of ENT1 inhibitor NBMPR-P. The series is classed as ADME, organism-based. The arrangement: dose 60 mg/kg, route intravenous. The conditions noted are these: in vivo, read-out: Vdss(app).

SMILES strings stand for the structures.

In the case of `Nc1ncnc2c1ncn2[C@@H]1O[C@H](CO)[C@@H](O)[C@H]1O` [ADENOSINE], the IC50 in series [1] turned out to be 3.3 µM; in [2], 106 µM; in series [3], 5.5 µM; in series [4], 5.5 µM. For the same compound, the Ki is 2.1 µM in series [1], 106 µM in series [2], 1.8 µM in series [3] and 5.3 µM in [4].
Turning to `O=c1ccn([C@@H]2O[C@H](CO)[C@@H](O)[C@H]2O)c(=O)[nH]1` [URIDINE], the IC50 is 52 µM in series [5]; 5.4 µM in [1]; 234 µM in series [2]; 5.8 µM in [3]; 32 µM in [4]. Further, the Ki in [5] (read-out: Ki(app)) turned out to be 51 µM; in series [1] it was 3.4 µM; in series [2], 242 µM; in series [3] it was 5.2 µM; in series [4] it was 31 µM.
For `Nc1nc(F)nc2c1ncn2[C@@H]1O[C@H](CO)[C@@H](O)[C@@H]1O` [FLUDARABINE], the results for the Tmax in series [6] and in [9] were 0.88 h and 1.63 h, respectively. Moreover, the AUC worked out at 11300 ng·h/g in the series with Brain [7] and 2490 ng·h/g in the series on Brain [8]. Besides, the highest concentration (Cmax) in series [10] was 801 ng/g; in series [13] it was 6050 ng/g. For the same compound, the Vd in [11] amounted to 2.6 L/kg; in [17] it was 1.6 L/kg. The AUC(0-inf) in series [12] amounted to 39600 ng·h/mL; in series [14], 65700 ng·h/mL. For the same compound, the half-life was 2.2 h in series [15] and 1.7 h in [16].

For the origin of these results see ChEMBL document CHEMBL3526052 (Drug Metab Dispos, 2013).
